# Source: article PMC6694155, “PTPσ inhibitors promote hematopoietic stem cell regeneration” (Nature Communications, 2019)
# Where “and” joins values, the source holds several entries; their conditions need not be identical. Identical values can stand only once.
# What was measured:
# human CD34+CD38− cells = assay: Annexin V/7AAD apoptosis assay of irradiated human BM CD34+ cells; format: cell-based
# Description: Eight- to ten-week-old female C57BL/6 mice were irradiated with 500 cGy TBI followed by subcutaneous injections of 5 mg/kg DJ001 or vehicle, or 5 mg/kg DJ001 plus 40 mg/kg EHT1864. Twenty four hours after irradiation, mice were killed to collect BM cells for Annexin V apoptosis analysis. BM cells were stained with APC-Cy7-conjugated anti-mouse Sca1 (BD Biosciences, #560654, 1:100), PE-conjugated anti-ckit (BD Biosciences, #553355, 1:100), and V450 lineage cocktail (BD Biosciences, #561301, 1:10) antibodies for 30 min at 4 °C. Cells were then resuspended in 1× Annexin V binding buffer and then stained with FITC-conjugated anti-Annexin V antibody (BD Biosciences, #556547,1:50) and 7AAD antibody (BD Biosciences, #559925, 1:40)[68]. For in vitro human BM cell apoptosis assays, isolated human BM CD34^+ cells were plated into 96-well plates and then irradiated with 300 cGy. Immediately after irradiation, cells were treated with 5 μg/mL DJ001 or vehicle for 24 h and then collected for Annexin V cell apoptosis analysis. For cell cycle analysis, BM KSL cells were irradiated at 300 cGy and then treated with 1 μg/mL DJ001 or vehicle for 36 h. Subsequently, cells were resuspended in 200 μL of PBS, fixed with 1 mL of ice-cold fixation solution (0.25% Saponin, 2.5% PFA, 2% fetal calf serum (FCS) in PBS), and incubated for 30 min on ice. Cells were washed in Saponin buffer (0.25% Saponin, 2% FCS in PBS) and resuspended in 200 μL of Saponin buffer containing 20 μL of FITC-conjugated anti-Ki67 antibody (BD Biosciences, #556026, 1:10) and 1 μL of RNase (Qiagen, #19101, 100 mg/mL). After 30 min of incubation, cells were washed in Saponin buffer and resuspended for flow analysis in 200 μL of Saponin buffer containing 5 μL 7AAD (BD Biosciences, #559925, 1:40).
# [1] = tested on: DsRed+ BM sca-1+lin− cells in irradiated C57BL/6 mice; assay: Homing study; format: in vivo, mouse
# Description: Sorted BM sca-1^+lin^− cells (100,000) from DsRed^+ mice were transplanted into lethally irradiated (950 cGy) recipient C57BL/6 mice followed by subcutaneous treatment of 5 mg/kg DJ001 or vehicle × 1 dose. At 18 h post transplantation, BM cells were collected from the recipient mice and were analyzed for percentages of DsRed^+ cells in the BM[17].
# [2] = tested on: BM KSL cells / BM lin− cells; assay: Gene expression of cell cycle regulatory genes (qPCR); format: cell-based, mouse
# Description: Rac1 CDS-targeting- and Bcl2l1 CDS-targeting shRNA in lentiviral plasmid (TRCN0000310888 and TRCN0000004685) and control shRNA (SHC216V) were purchased from Sigma Aldrich. For viral production, 293T cells were transfected with lentiviral gag/pol and VSV-G (courtesy of Donald Kohn, UCLA) and the lentiviral plasmids, at a ratio of 2.2: 1.2: 3.3 (in [μg], gag/pol:VSVG:Plasmid) using Lipofectamine 3000 and P300 Enhancer. Viral particles were collected after 24 h and 48 h. One milliliter of viral supernatant was used to infect 0.75 × 10^6 BM lin^− cells. Infected cells were collected the next day and irradiated with 300 cGy followed by treatment with or without 1 μg/mL DJ001, prior to CFC assay.
# For all studies, RNA was isolated using the Qiagen RNeasy micro kit (Qiagen). RNA was reverse transcribed using the High-Capacity cDNA Reverse Transcription Kit (ThermoFisher Scientific) and was then used for quantitative PCR with SYBR Select Master Mix (Life Technologies). Values were normalized to housekeeping gene Gapdh/GAPDH and given as ΔΔCt values normalized to media-treated, non-irradiated BM KSL cells (2(−ΔΔC(T)) method)[67].
# [3] = molecular target: T1, PTPσ-p250GAP complex in BM KSL cells (Mus musculus, UniProt B0V2N1); assay: Proximity ligation assay; format: cell-based; conditions: 1 μg/mL DJ001, 1 h
# T1 construct: endogenous in cells; host or cells: primary bone marrow KSL (c-kit+ Sca-1+ lin-) cells of C57BL/6 mice
# T1 sequence (B0V2N1 30-1907, one chain of several): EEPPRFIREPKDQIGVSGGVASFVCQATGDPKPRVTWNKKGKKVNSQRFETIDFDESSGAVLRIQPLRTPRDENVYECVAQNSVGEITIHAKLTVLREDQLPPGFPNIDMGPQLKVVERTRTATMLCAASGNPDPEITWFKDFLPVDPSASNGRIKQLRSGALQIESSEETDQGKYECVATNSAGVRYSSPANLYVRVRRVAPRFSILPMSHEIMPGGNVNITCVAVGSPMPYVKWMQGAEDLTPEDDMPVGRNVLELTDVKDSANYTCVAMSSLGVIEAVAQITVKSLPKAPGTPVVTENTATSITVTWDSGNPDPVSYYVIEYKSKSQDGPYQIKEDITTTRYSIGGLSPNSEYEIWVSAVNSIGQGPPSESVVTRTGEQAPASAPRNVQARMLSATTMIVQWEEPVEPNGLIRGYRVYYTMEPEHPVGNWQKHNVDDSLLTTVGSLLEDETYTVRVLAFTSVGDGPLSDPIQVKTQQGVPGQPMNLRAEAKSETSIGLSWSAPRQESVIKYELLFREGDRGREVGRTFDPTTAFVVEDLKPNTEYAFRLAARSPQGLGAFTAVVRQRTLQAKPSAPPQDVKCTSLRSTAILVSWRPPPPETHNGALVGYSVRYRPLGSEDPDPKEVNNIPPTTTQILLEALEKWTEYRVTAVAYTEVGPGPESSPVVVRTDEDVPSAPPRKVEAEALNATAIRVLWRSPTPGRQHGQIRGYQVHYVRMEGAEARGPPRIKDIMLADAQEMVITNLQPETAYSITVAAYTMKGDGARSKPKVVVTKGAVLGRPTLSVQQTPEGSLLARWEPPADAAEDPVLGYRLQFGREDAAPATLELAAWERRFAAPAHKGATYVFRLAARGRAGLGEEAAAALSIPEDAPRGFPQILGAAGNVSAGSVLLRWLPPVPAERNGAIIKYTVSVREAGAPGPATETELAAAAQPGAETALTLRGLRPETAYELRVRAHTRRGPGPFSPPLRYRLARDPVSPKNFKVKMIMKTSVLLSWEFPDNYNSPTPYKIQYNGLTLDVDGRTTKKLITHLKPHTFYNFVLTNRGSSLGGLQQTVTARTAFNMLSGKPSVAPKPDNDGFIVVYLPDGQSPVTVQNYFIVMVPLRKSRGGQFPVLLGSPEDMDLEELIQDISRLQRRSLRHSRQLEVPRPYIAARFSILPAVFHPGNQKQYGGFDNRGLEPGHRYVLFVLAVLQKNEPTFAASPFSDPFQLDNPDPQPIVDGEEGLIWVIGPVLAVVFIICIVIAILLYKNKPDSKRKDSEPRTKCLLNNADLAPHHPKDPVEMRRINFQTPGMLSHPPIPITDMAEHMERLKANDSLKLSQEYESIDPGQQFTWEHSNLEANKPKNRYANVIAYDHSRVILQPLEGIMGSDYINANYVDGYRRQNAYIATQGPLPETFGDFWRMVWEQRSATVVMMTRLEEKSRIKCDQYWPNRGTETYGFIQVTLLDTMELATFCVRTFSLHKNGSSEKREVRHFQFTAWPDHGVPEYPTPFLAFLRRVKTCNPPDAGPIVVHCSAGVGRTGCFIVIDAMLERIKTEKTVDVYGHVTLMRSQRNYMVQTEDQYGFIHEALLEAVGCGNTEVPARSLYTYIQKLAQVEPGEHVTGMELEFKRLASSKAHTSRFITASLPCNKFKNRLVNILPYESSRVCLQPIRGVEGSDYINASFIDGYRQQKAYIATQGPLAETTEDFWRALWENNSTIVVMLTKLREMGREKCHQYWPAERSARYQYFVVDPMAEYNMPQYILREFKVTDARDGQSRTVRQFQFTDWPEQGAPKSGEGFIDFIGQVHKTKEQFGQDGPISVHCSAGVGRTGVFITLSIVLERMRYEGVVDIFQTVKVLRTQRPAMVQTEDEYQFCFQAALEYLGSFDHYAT
# Description: A PLA assay was performed by using the Duolink In Situ Red Starter Kit (Millipore Sigma) to detect the binding between PTPσ and p250GAP proteins. BM KSL cells from C57BL/6 mice were sorted by fluorescence-activated cell sorting and then plated onto fibronectin pre-coated chamber slides overnight. The next day, cells were treated with 1 μg/mL DJ001 or vehicle (equal volume of DMSO) for 1 h at 37 °C. Cells were then fixed with 4% paraformaldehyde (PFA) for 20 min. The slides were blocked with Duolink blocking solution and incubated with rabbit anti-ARHGAP32 polyclonal antibody (Bioss Antibodies, #bs-9296R, 1:50 dilution) and goat anti-PTPσ (K-19) polyclonal antibody (Santa Cruz Biotechnology, #sc-10873, 1:50) overnight at 4 °C. Cells were imaged using a Leica SP8 Confocal Microscope equipped with a ×63 objective lens. A white light laser set to 580 nm was used to excite dsRed and a UV laser was used to excite 4′,6-diamidino-2-phenylindole (DAPI). Analysis was performed using the spots detection function in IMARIS 9.0.2 (Bitplane).
# [4] = tested on: PPA (Protein Phosphatase 1); assay: PhosphataseProfiler screen: PPA; format: biochemical; conditions: replicates, in % (unit assumed)
# Description: (§1) Compound DJ001 was evaluated in a PhosphataseProfiler™ screen at 10 μM and 1 μM (2.7 μg/mL and 0.27 μg/mL) concentrations at Eurofins Pharma Discovery Services UK (Study number UK022-0004033) against a panel of 21 Phosphatases. In each experiment, the respective reference antagonist/agonist was tested directly with DJ001 and the data were compared with historical values determined at Eurofins. DJ001 compound inhibition was calculated as percentage inhibition of the enzymatic activity compared with control.
# [5] = molecular target: T2, DUSP22 (Dual Specificity Phosphatase 22) (Homo sapiens, UniProt Q9NRW4); assay: PhosphataseProfiler screen: DUSP22; format: biochemical; conditions: replicates
# T2 construct: purchased Eurofins Pharma Discovery Services UK
# T2 sequence (Q9NRW4 whole entry, species assumed): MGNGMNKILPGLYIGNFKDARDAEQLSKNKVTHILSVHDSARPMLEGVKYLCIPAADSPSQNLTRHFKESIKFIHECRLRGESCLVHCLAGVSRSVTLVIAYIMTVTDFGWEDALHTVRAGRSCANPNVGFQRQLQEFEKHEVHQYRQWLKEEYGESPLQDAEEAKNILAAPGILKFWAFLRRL
# Description: as §1
# [6] = irradiated human BM CD34+ cells, replicates
# [7] = KSL cells, 36 h following 300 cGy, normalized to Gapdh and media
structure (smiles),measurement,setting,value
"O=C(/C=C\Nc1cccc([N+](=O)[O-])c1)c1ccccc1 [DJ001, (Z)-3-((3-nitrophenyl)amino)-1-phenylprop-2-en-1-one]",radiation-induced apoptosis of human CD34+CD38− cells,human CD34+CD38− cells; 24 h after 300 cGy,decreased radiation-induced apoptosis
same,Figure 5c (left panel): Annexin V/7AAD assay,human CD34+CD38− cells; [6],85.79 and 85.23 and 84.4 and 88.36 and 87.91 and 86.9 and 86.4 and 88.8 and 87.8 and 88
same,Figure 5c (right panel): Annexin V/7AAD assay,human CD34+CD38− cells; [6],10.98 and 10.1 and 10.94 and 7.63 and 8.04 and 12.5 and 13.3 and 11 and 12.1 and 11.7
same,homing of transplanted BM sca-1+lin− cells,"[1]; 18 h, irradiated C57BL/6 mice",no effect on homing
same,"percentage of donor DsRed+ cells in the BM, per mouse (Supplementary Figure 8b)","[1]; 18 hours, 5 mg/kg DJ001 subcutaneously, 5 mg/kg",0.19% and 0.183% and 0.207%
same,DJ001-mediated transcription of Cdk2 and Cyclin E with Rac1-shRNA,[2]; BM KSL cells transduced with Rac1-shRNA,blocked DJ001-mediated transcription of Cdk2 and Cyclin E
same,Fold changes (2^−ΔΔCt) of Cyclin E expression (Figure 4c right panel),"[2]; BM lin− cells, 48 h after 300 cGy, shCtrl",1.96 and 1.7 and 1.9
same,Fold changes (2^−ΔΔCt) of Cdk2 expression (Figure 4c left panel),"[2]; BM lin− cells, 48 h after 300 cGy, shRac1",0.56 and 0.39 and 0.71 and 0.44
same,Fold changes (2^−ΔΔCt) of Cdk2 expression,[2]; [7],1.9 and 2.08 and 1.8
same,Fold changes (2^−ΔΔCt) of Cdk4 expression,[2]; [7],1.32 and 1.05 and 1
same,Fold changes (2^−ΔΔCt) of Cdk6 expression,[2]; [7],1.09 and 0.91 and 0.98
same,Fold changes (2^−ΔΔCt) of Cdkn1A expression,[2]; [7],1.43 and 1.41 and 1.14
same,Fold changes (2^−ΔΔCt) of Cdkn1B expression,[2]; [7],1.11 and 1.07 and 0.74
same,Fold changes (2^−ΔΔCt) of Cyclin D1 expression,[2]; [7],1.54 and 1.21 and 0.97
same,Fold changes (2^−ΔΔCt) of Cyclin D2 expression,[2]; [7],1.04 and 1.14 and 0.74
same,Fold changes (2^−ΔΔCt) of Cyclin E expression,[2]; [7],2.54 and 2.89 and 2.07
same,"expression of Cdk4, Cdk6, Cdkn1a, Cdkn1b, Cyclin D1, Cyclin D2",[2]; irradiated BM KSL cells,did not alter the expression
same,expression of Cdk2 and Cyclin E,[2]; irradiated KSL cells,significantly increased the expression
same,co-localization of PTPσ and p250GAP,[3],significantly decreased co-localization
same,Supplementary Figure 1: PPA activity,[4]; 2.7 μg/mL DJ001,101 and 93 and 96
same,Supplementary Figure 1: PPA activity,[4]; 0.27 g/mL DJ001,96 and 90 and 101
same,Supplementary Figure 1: DUSP22 activity,[5]; 0.27 μg/mL DJ001,107 and 96 (2×)
same,Supplementary Figure 1: DUSP22 activity,[5]; 2.7 μg/mL DJ001,98 and 109 and 100
